Test results taken from patent US20230233425A1, “USE OF VOLATILE COMPOSITIONS TO LIMIT OR ELIMINATE THE PERCEPTION OF MALODOR” (Firmenich SA, priority 2017, published 2023).
Like-named read-outs stand apart in the source and are kept apart here. Marks after values point to notes of the source that are not given here.

Key:
[1] = test system: 1-octen-3-ol mushroom/earthy/fungal odor perception; assay: Human sensory performance of test compounds with and without 1-octen-3-ol; assay type: in vivo; settings: for % Mushroom/Earthy/Fungal Odor: Test Compound Only
[2] = test system: geonol earthy/moss odor perception; assay: Human sensory performance of test compounds with and without geonol; assay type: in vivo; settings: for % Earthy/Moss Odor: Test Compound Only
Description: Sensory Evaluation: Five 16 oz glass jars containing either REF (geonol only), geonol only control, antagonist only, mixture of geonol and isointense antagonist, or mixture of geonol and low intensity antagonist were presented to the panelists (last four samples were randomized across panelists). The panelists were asked to familiarize themselves with the earthy/moss odor quality from the REF jar first, then rate the pleasantness, earthy/moss odor intensity and overall odor intensity of the next four samples on a 0-10 linear scale. The inter-stimulus interval between the samples was two minutes to avoid adaptation. […]
The results are shown in Tables 16 and 17, and FIGS. 3 to 5.

[3] = test system: geonol malodor (earthy/moss odor) perception; assay: Sensory evaluation of geonol earthy/moss odor in iso-intense binary mixtures (glass jars); assay type: in vivo, human; settings: iso-intense binary mixture
Description: Sensory Evaluation: Five 16 oz glass jars containing either REF (geonol only), geonol only control, antagonist only, mixture of geonol and isointense antagonist, or mixture of geonol and low intensity antagonist were presented to the panelists (last four samples were randomized across panelists). The panelists were asked to familiarize themselves with the earthy/moss odor quality from the REF jar first, then rate the pleasantness, earthy/moss odor intensity and overall odor intensity of the next four samples on a 0-10 linear scale. The inter-stimulus interval between the samples was two minutes to avoid adaptation.

[4] = test system: OR2W1 or the OR1A1 olfactory receptor; assay: 1-octen-3-ol olfactory receptor antagonist cell-based dose-response vs 1-octen-3-ol EC80; settings: for IC50: 1-octen-3-ol at EC80; for % Inhibition: maximum inhibition normalized to baseline agonist activity
Description: Each cell line was screened with a volatile compound library for their inhibitory properties and potential 1-octen-3-ol smell inhibition.
Single concentration monitoring of the 1-octen-3-ol induced cell activity in the presence or absence of a test compound allowed for the identification of compounds with a putative suppression or inhibitory effect.

Olfr740 = Olfr740 (Mus musculus, UniProt E9PV79); assay: Indole antagonist dose-response, cAMP HTRF in HEK293T, vs indole EC80; assay type: cell-based; settings: for Emax: HEK-293T, read-out: Olfr740 % Inhibition
Experimental: (§1) Using a cell-based assay, mouse receptor Olfr738, Olfr739, Olfr740, Olfr741, 0fr742, Olfr743, Olfr744, Olfr746, Olfr748 and Olfr749 were tested in an HEK293T cell line wherein the endogenous RTP1 gene has been activated and the odorant receptor chaperone was expressed (described in WO2016201153A1). The receptor genes were tagged with a Flag-Rho tag combination. Receptor genes were co-transfected with the canonical olfactory human G-protein alpha subunit Golf gene. Co-expression of the human Golf activates the Gs transduction pathway that leads to an internal cAMP increase upon binding to the appropriate ligand (indole here). Odorant-induced activity was detected by measuring the cAMP increase in the cytosol using an HTRF based kit (CisBio, cAMP dynamic 2 kit, cat. 62AM4PEJ).

Olfr742 = Olfr742 (Mus musculus, UniProt A2RTP5); assay: as above; assay type: cell-based; settings: for Emax: HEK-293T, read-out: Olfr742 % Inhibition
Experimental: as §1

Olfr738 = Olfr738 (Mus musculus, UniProt L7N1X7); assay: as above; assay type: cell-based; settings: for Olfr738 % Inhibition: Table 22, first listing
Experimental: as §1

Olfr741 = Olfr741 (Mus musculus, UniProt L7N1Y5); assay: as above; assay type: cell-based; settings: Table 22, first listing
Experimental: as §1

[5] = test system: geonol receptors Olfr339, Olfr1487, Olfr1A1, OR11A1, Olfr96; assay: Antagonists of geonol receptors (Example 11); assay type: cell-based, mouse and human; parameters: Inhibition(%): concentration or dose not given beside the values; settings: Table 18
[6] = test system: OR11A1, or the OR2M3 olfactory receptor; assay: Geonol olfactory receptor antagonist cell-based screening, inhibitory dose-response vs geonol EC80; parameters: species or system human; settings: geonol at EC80; for IC50: read-out: IC50
[7] = biological target: T1, OR51E1 olfactory receptor (Homo sapiens, UniProt Q8TCB6); assay: Butyric acid olfactory receptor antagonist cell-based dose-response vs butyric acid EC80; settings: butyric acid at EC80; Table 5
T1 construct: expressed in transfected cells
T1 sequence (Q8TCB6 1-318): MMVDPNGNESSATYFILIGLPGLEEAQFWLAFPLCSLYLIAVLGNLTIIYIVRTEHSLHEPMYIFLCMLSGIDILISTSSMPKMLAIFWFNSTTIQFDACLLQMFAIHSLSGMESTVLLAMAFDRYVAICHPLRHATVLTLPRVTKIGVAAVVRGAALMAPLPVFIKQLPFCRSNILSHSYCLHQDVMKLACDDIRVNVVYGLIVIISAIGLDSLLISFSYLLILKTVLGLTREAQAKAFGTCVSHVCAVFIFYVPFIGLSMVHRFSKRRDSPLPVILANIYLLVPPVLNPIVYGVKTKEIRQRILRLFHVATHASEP

[8] = test system: 1-octen-3-ol receptors OR2W1, Olfr93, Olfr120, Olfr398; assay: Antagonists of 1-octen-3-ol receptors (Example 11); assay type: cell-based, mouse and human; parameters: Inhibition(%): concentration or dose not given beside the values; settings: Table 19
[9] = Low Dilution Test Compound + Geonol (0.1%)
[10] = Medium Dilution Test Compound + Geonol (0.1%)
[11] = Table 22, first listing, vs indole EC80
[12] = Table 22, first listing (r7-r45), vs indole EC80, read-out: Olfr740 IC50
[13] = Table 22, first listing (r7-r45), vs indole EC80, read-out: Olfr742 IC50

Olfr742, sequence (A2RTP5 entry or part of it): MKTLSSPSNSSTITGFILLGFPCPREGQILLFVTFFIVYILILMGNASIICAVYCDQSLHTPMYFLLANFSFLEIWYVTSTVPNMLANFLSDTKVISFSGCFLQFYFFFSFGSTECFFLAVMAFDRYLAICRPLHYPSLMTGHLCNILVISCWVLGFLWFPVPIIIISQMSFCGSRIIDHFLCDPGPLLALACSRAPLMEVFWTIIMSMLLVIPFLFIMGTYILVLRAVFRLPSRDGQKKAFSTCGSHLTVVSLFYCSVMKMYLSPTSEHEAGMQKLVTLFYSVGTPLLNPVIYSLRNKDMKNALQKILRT
Olfr738, sequence (L7N1X7 entry or part of it): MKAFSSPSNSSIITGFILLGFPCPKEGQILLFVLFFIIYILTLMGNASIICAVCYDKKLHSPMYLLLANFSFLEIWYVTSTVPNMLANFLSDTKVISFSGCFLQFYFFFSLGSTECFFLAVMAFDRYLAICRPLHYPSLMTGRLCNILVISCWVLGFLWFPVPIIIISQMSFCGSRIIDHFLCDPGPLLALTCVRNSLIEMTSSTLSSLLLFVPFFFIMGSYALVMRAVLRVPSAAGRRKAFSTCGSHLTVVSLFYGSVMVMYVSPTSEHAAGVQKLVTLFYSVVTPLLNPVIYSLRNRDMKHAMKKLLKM
Olfr740, sequence (E9PV79 entry or part of it): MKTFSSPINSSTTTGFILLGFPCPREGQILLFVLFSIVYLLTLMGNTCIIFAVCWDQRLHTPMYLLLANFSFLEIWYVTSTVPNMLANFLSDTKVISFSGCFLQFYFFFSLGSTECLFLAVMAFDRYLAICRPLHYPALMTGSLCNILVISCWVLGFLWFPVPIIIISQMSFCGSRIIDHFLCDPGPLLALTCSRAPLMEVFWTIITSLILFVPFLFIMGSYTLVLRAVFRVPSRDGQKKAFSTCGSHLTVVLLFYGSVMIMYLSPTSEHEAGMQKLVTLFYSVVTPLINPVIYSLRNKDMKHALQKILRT
Olfr741, sequence (L7N1Y5 entry or part of it): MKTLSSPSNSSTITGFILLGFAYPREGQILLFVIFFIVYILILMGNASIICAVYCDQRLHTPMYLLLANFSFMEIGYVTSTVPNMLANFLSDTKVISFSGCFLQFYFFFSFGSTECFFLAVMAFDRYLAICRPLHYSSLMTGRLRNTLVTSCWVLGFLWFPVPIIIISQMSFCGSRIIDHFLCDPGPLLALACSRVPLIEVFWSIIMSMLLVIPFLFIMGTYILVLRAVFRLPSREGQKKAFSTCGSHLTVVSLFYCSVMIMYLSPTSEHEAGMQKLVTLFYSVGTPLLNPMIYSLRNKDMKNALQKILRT

Molecule	% Mushroom/Earthy/Fungal Odor [1] [%]	% Earthy/Moss Odor [2] [%]	% Remaining in human sensory tests [3]	% Inhibition [6] [%]	IC50 [6] [µM]	further results
3-methyl-4-(2,6,6-trimethylcyclohex-2-en-1-yl)but-3-en-2-one; 1-(2,6,6-trimethylcyclohex-2-en-1-yl)pent-1-en-3-one	20.00	29.40	38* %			% Mushroom/Earthy/Fungal Odor Remaining ([1]; Low Dilution Test Compound + 1-octen-3-ol (0.15%)): 75.80%; % Mushroom/Earthy/Fungal Odor Remaining ([1]; Medium Dilution Test Compound + 1-octen-3-ol (0.15%)): 53.50%; % Earthy/Moss Odor Remaining [2, 9]: 75.80%; % Earthy/Moss Odor Remaining [2, 10]: 56.20%
CC1C(C)(C)C2=C(C(=O)CCC2)C1(C)C (stereo not drawn) [1,1,2,3,3-pentamethyl-2,5,6,7-tetrahydroinden-4-one]	25.90					IC50 [4]: 51.2 µM; % Inhibition [4]: 118.44%; Emax (Olfr740; [11]): 217%; IC50 (Olfr740; [12]): 12 µM; Emax (Olfr742; [11]): 120%; IC50 (Olfr742; [13]): 249 µM; IC50 (Olfr738; Table 22, first listing (r7-r45), vs indole EC80, read-out: Olfr738 IC50): 21.3 µM; Olfr738 % Inhibition (Olfr738; vs indole EC80): 61.33%; IC50 (Olfr741): 2560 µM; Olfr741 % Inhibition (Olfr741): 140.61%; IC50 [5]: 268 µM; Inhibition(%) [5]: 71%
CC=CC(=O)C1C(C)C=CCC1(C)C (stereo not drawn) [1-(2,6,6-trimethyl-1-cyclohex-3-enyl)but-2-en-1-one]	24.00	31.80	66* %	10	301	IC50 [7]: 210 µM
CC1CC(C)(c2ccccc2)CO1 (stereo not drawn) [2,4-dimethyl-4-phenyloxolane]						Emax (Olfr740; [11]): 100%; IC50 (Olfr740; [12]): 51.2 µM
CC1=CC(C)C(C=O)CC1 (stereo not drawn) [2,4-dimethylcyclohex-3-enecarbaldehyde]			45* %			IC50 [4]: 18.8 µM; % Inhibition [4]: 107.99%
Cc1ccc(CC(C)C=O)cc1 (stereo not drawn) [2-methyl-3-(4-methylphenyl) propanal]						Emax (Olfr742; [11]): 37.2%; IC50 (Olfr742; [13]): 88.2 µM
CC(C)(C)c1ccccc1O [2-tertbutyl phenol]		41.30	46* %	100	88	IC50 [4]: 37 µM; % Inhibition [4]: 100.34%
CC(C)=CCCC(C)=CC=O [3,7-dimethylocta-2,6-dienal]	22.30	27.60	42* %			
CC(CC=O)CCc1ccccc1 (stereo not drawn) [3-methyl-5-phenylpentanal]						Emax (Olfr740; [11]): 110%; IC50 (Olfr740; [12]): 16.1 µM
CC(CC=O)c1ccccc1 (stereo not drawn) [3-phenylbutanal]						Emax (Olfr742; [11]): 113%; IC50 (Olfr742; [13]): 44.8 µM
CC(=O)C=CC1=C(C)CCCC1(C)C [4-(2,6,6-trimethylcyclohexen-1-yl)but-3-en-2-one]		41.80	43* %			IC50 [8]: 269 µM; Inhibition(%) [8]: 66%; IC50 [5]: 289 µM; Inhibition(%) [5]: 51%
CCCCCCc1ccc(C)nc1 [5-hexyl-2-methylpyridine 10% Citr, 5-hexyl-2-methylpyridine]		46.40	37%		555	
CC(=O)CCC=C(C)CCC=C(C)C [6,10-dimethylundeca-5,9-dien-2-one]		52.80	45* %	50	133	
CC(CC=O)CCCC(C)(C)O (stereo not drawn) [7-hydroxy-3,7-dimethyloctanal]			39* %			
CC(=O)OC(c1ccccc1)C(Cl)(Cl)Cl (stereo not drawn) [(2,2,2-trichloro-1-phenylethyl) acetate]	30.00	38.60	61%			
Cc1ccc2c(c1)CC(C)(CO)C2 (stereo not drawn) [(2,5-dimethyl-1,3-dihydroinden-2-yl)methanol]	36.30	41.70	37* %			
CCCCCOC(=O)Cc1ccccc1 [Amyl Phenylacetate]						IC50 (Olfr740): 40.4 µM; Emax (Olfr740): 61%; IC50 (Olfr742): 141 µM; Emax (Olfr742): 18%; IC50 (Olfr738): 82.7 µM; Olfr738 % Inhibition (Olfr738; vs indole EC80): 18.44%
CC=Cc1ccc(OCC)c(O)c1 [Compound 2-ethoxy-5-prop-1-enylphenol, 2-ethoxy-5-prop-1-enylphenol]	23.20	27.10	34* %	33	111	
CCCCCC1CCCC1=O (stereo not drawn) [Compound 2-pentylcyclopentan-1-one, 2-pentylcyclopentan-1-one]		40.90	78%			
CC(C)Cc1ccc2ccccc2n1 [isobutylquinoline, 2-ISOBUTYLQUINOLINE]	27.30	37.80		45		IC50 [4]: > 600 µM; % Inhibition [4]: 30.14%
CCC=CCCC=CC=O [nona-2,6-dienal]		65.40	67%	80	156	
CC(=O)OCCc1ccccc1 [phenyl ethyl acetate]		35.30	47* %			% Earthy/Moss Odor Remaining [2, 9]: 97.10%; % Earthy/Moss Odor Remaining [2, 10]: 65.80%
Cc1ccc(C(C)C)c(O)c1 [thymol, 5-Methyl-2-(propan-2-yl)phenol]		54.70	53%	100	107	
